Assays:
[1] = tested on: synaptic localization of CaMKII F89G / K42M; experiment: Synaptic localization of GFP-CaMKII F89G or K42M mutants in rat hippocampal cultures, basal and cLTP; type: cell-based; conditions: 10 μM NM-PP1, basal and cLTP
Method: This conclusion also predicts that the LTP stimulus-induced movement of CaMKII to excitatory synapses should be (i) impaired in the CaMKII F89G mutant; but (ii) normalized by pharmacogenetic rescue with NM-PP1. Indeed, both predictions were observed experimentally (FIGS. 4D-4E).
Chemical LTP stimulation. Chemical LTP (CL TP) was induced with 100 μM glutamate and 10 μM glycine for 45 seconds. Treatments were followed by washout in 5 volumes of fresh ACSF. For biochemistry experiments, neurons were treated with 1 μM TTX to silence neurons prior to treatment with cLTP.
Image analysis of hippocampal neurons. […] 2D maximum intensity projection images were then generated and analyzed using a custom-build program in ImageJ. The program utilizes combinatorial thresholding to mask regions of the cell that contain high intensity PSD-95 puncta (the post-synaptic side of excitatory synapses in dendritic spines) and regions of the dendritic shaft that contain no fluorescence intensity of PSD-95. As a measure of synaptic enrichment, the ratio of mean CaMKII fluorescence intensity of the PSD-95 mask to the mean CaMKII fluorescence intensity in the dendritic shaft mask is measured. Spine growth was assessed by measuring the changes in mCherry cell fill fluorescence intensity within dendritic spine ROIs (F/F0).

[2] = tested on: LTP in CaMKIIα knockout slices; experiment: LTP induction in slices of CaMKIIα knockout mice injected with AAV-mScarlet (mock) or AAV-mScarlet-CaMKII F89G; type: cell-based, mouse
Method: Specifically, in one exemplary method, pharmacogenetic rescue of LTP with NM-PP1 was tested in hippocampal slices expressing the CaMKII F89G mutant. For this purpose, mScarlet-labeled CaMKII F89G mutant were re-expressed in the hippocampal CA1 region of CaMKIIα knockout mice. This was done by stereotactic injection of a packaged adeno-associated virus (AAV) construct in which the expression of either mScarlet alone or the mScarlet-labeled mutant CaMKII is controlled by the CaMKIIα promoter (FIG. 5A). After 5 weeks of expression, acute slices were prepared and evaluated for proper localization of expression by imaging of mScarlet fluorescence (FIG. 5A and FIG. 11A). […] As expected, NM-PP1 had no effect on the residual LTP in these control slices (FIGS. 5B-5C and FIG. 11B). By contrast, in slices expressing the CaMKII F89G mutant, LTP was completely abolished (FIGS. 5D-5E), consistent with residual LTP being further suppressed by the dominant negative effect (on the remaining minor CaMKIIβ isoform in the CaMKIIα knockout) that is exerted by a CaMKII mutant with impaired ATP-binding and thereby is deficient in both activity and GluN2B binding. […] Thus, two independent lines of pharmacogenetic evidence topple current dogma by directly supporting the conclusion that LTP induction is linked to structural rather than enzymatic functions of CaMKII.
AAV Production. […]

CC(C)(C)n1nc(Cc2cccc3ccccc23)c2c(N)ncnc21 [NM-PP1]
impaired synaptic localization of CaMKII F89G mutant [1]: rescued
residual LTP in CaMKIIα knockout slices expressing mScarlet control ([2]; NM-PP1): no effect
LTP induction in CaMKIIα knockout slices expressing CaMKII F89G ([2]; NM-PP1 10 μM): LTP induction was enabled

From patent US20260263429A1, “INHIBITORS OF CA 2+/CALMODULIN-DEPENDENT PROTEIN KINASE II (CAMKII) THAT DO NOT INHIBIT LONG-TERM POTENTIATION (LTP) INDUCTION AND THERAPEUTIC USES THEREOF” (The Regents of the University of Colorado, A Body Corporate, priority 2023, published 2026)
